Experimental data as given in paper PMC3390782 (Angewandte Chemie (International Ed. in English), 2012).
In brackets after ≈: the same amount, converted by molar mass.

How the values were obtained:
[1] = system: S. mutans UA159; test: Time of kill assay; format: cell-based; settings: at MIC (4e 2.3 μg/mL, TOB 75 μg/mL); after 5 hours of incubation
[2] = system: L. monocyfogenes ATCC19115; test: MIC, antibacterial activity; format: cell-based, L. monocytogenes; settings: strain L, Gram-positive
[3] = system: E. coli TolC; test: MIC, antibacterial activity; format: cell-based
[4] = system: S. mutans UA159; test: MIC, antibacterial activity; format: cell-based
[5] = system: E. coli BL21 (DE3) with AAC(6')/APH(2”)-pET22b; test: MIC, antibacterial activity; format: cell-based
[6] = system: E. coli BL21 (DE3) with AAC(3)-IV-lnt-pET19b-pps; test: MIC, antibacterial activity; format: cell-based
[7] = system: S. enterica ATCC14028; test: MIC, antibacterial activity; format: cell-based; settings: strain U, Gram-negative
[8] = system: human RBCs; test: Hemolysis assay; settings: 1 h at 37 °C
[9] = system: E. coli BL21 (DE3); test: MIC, antibacterial activity; format: cell-based
[10] = system: rat RBCs; test: Hemolysis assay; settings: 1 h at 37 °C
[11] = system: S. pyogenes; test: Time of kill assay; format: cell-based; settings: at MIC (4e 2.3 μg/mL, TOB 18.8 μg/mL); after 3 hours of incubation
[12] = system: B. subtilis 168 with AAC(6')/APH(2”)-pRB374; test: MIC, antibacterial activity; format: cell-based; settings: strain G, Gram-positive
[13] = system: E. coli BL21 (DE3) with Eis; test: MIC, antibacterial activity; format: cell-based
[14] = system: B. anthracis 34F2 Sterne strain; format: cell-based; settings: strain I, Gram-positive
[15] = system: MRSA; test: MIC, antibacterial activity; format: cell-based, Staphylococcus aureus; settings: strain C, Gram-positive
[16] = system: S. pyogenes serotype M12 (strain MGAS9429); test: MIC, antibacterial activity; format: cell-based
[17] = system: VRE; test: MIC, antibacterial activity; format: cell-based, Enterococcus; settings: strain J, Gram-positive
[18] = system: E coli BL21 (DE3) with pET22b; test: MIC, antibacterial activity; format: cell-based
[19] = system: E. coli MC1061; test: MIC, antibacterial activity; format: cell-based
[20] = system: B. subtilis with constitutive YFP expression (PY79); test: Fluorescence microscopy of YFP-expressing bacteria; format: cell-based
[21] = system: S. aureus NorA; test: MIC, antibacterial activity; format: cell-based
[22] = system: E. faecalis ATCC29212; test: MIC, antibacterial activity; format: cell-based
[23] = system: Shigella clinical isolate 6831; test: MIC, antibacterial activity; format: cell-based
[24] = system: B. subtilis 168; test: MIC, antibacterial activity; format: cell-based; settings: strain F, Gram-positive
[25] = system: S. epidermidis AJCCM228; test: MIC, antibacterial activity; format: cell-based
[26] = system: B. cereus ATCC11778; test: MIC, antibacterial activity; format: cell-based; settings: strain H, Gram-positive
[27] = system: luciferase translation in lysates of E. coli; settings: read-out: IC50, inhibition of luciferase translation; cited from earlier work

SMILES	MIC [2]	MIC ([3]; strain R, Gram-negative)	MIC ([4]; strain E, Gram-positive)	MIC ([5]; strain O, Gram-negative)	MIC ([6]; strain P, Gram-negative)	MIC [7]	MIC ([9]; strain M, Gram-negative)	MIC [12]	MIC ([13]; strain Q, Gram-negative)	MIC [14]	MIC [15]	MIC ([16]; strain D, Gram-positive)	MIC [17]	MIC ([18]; strain N, Gram-negative)	MIC ([19]; strain S, Gram-negative)	MIC ([21]; strain B, Gram-positive)	MIC ([22]; strain K, Gram-positive)	MIC [24]	MIC [26]	also measured
CCCCCCCCCCCCCCSC[C@H]1O[C@H](O[C@@H]2[C@@H](O)[C@H](O[C@H]3O[C@H](CN)[C@@H](O)C[C@H]3N)[C@@H](N)C[C@H]2N)[C@H](O)[C@@H](N)[C@@H]1O [4e]	9.4 µg/mL (≈ 13.8 µM)	4.7 µg/mL (≈ 6.91 µM)	2.3 µg/mL (≈ 3.38 µM)	4.7 µg/mL (≈ 6.91 µM)	2.3 µg/mL (≈ 3.38 µM)	37.5 µg/mL (≈ 55.1 µM)	4.7 µg/mL (≈ 6.91 µM)	4.7 µg/mL (≈ 6.91 µM)	4.7 µg/mL (≈ 6.91 µM)	0.3 µg/mL (≈ 0.441 µM)	9.4 µg/mL (≈ 13.8 µM)	2.3 µg/mL (≈ 3.38 µM)	18.8 µg/mL (≈ 27.6 µM)	4.7 µg/mL (≈ 6.91 µM)	4.7 µg/mL (≈ 6.91 µM)	9.4 µg/mL (≈ 13.8 µM)	75 µg/mL (≈ 110 µM)	–	–	Time of kill: viable bacteria after incubation [1]: no viable bacteria remained; hemolysis of human RBCs ([8]; 18.8 μg/mL): 14.3 ± 1.7%; hemolysis of rat RBCs ([10]; 18.8 μg/mL): 19.5 ± 0.3%; Time of kill: viable bacteria after incubation [11]: no viable bacteria remained; Cell viability / YFP fluorescence by microscopy [20]: a significant drop in fluorescence
CCCCCCCCCCCCS(=O)(=O)CC1OC(OC2C(N)CC(N)C(OC3OC(CN)C(O)CC3N)C2O)C(O)C(N)C1O (stereo not drawn) [6d]	9.4 µg/mL (≈ 13.7 µM)	2.3 µg/mL (≈ 3.36 µM)	9.4 µg/mL (≈ 13.7 µM)	>150 µg/mL	>150 µg/mL	>150 µg/mL	75 µg/mL (≈ 110 µM)	>150 µg/mL	>150 µg/mL	2.3 µg/mL (≈ 3.36 µM)	75 µg/mL (≈ 110 µM)	18.8 µg/mL (≈ 27.5 µM)	75 µg/mL (≈ 110 µM)	>150 µg/mL	18.8 µg/mL (≈ 27.5 µM)	37.5 µg/mL (≈ 54.8 µM)	9.4 µg/mL (≈ 13.7 µM)	4.7 µg/mL (≈ 6.87 µM)	9.4 µg/mL (≈ 13.7 µM)	MIC ([23]; strain T, Gram-negative): >150 µg/mL; MIC ([25]; strain A, Gram-positive): 9.4 µg/mL (≈ 13.7 µM)
CCCCCCCCSCC1OC(OC2C(N)CC(N)C(OC3OC(CN)C(O)CC3N)C2O)C(O)C(N)C1O (stereo not drawn) [4b]	>150 µg/mL	9.4 µg/mL (≈ 15.8 µM)	150 µg/mL (≈ 252 µM)	>150 µg/mL	>150 µg/mL	>150 µg/mL	>150 µg/mL	>150 µg/mL	>150 µg/mL	75 µg/mL (≈ 126 µM)	>150 µg/mL	150 µg/mL (≈ 252 µM)	>150 µg/mL	>150 µg/mL	75 µg/mL (≈ 126 µM)	150 µg/mL (≈ 252 µM)	>150 µg/mL	37.5 µg/mL (≈ 62.9 µM)	150 µg/mL (≈ 252 µM)	MIC ([23]; strain T, Gram-negative): >150 µg/mL; MIC ([25]; strain A, Gram-positive): 75 µg/mL (≈ 126 µM)
CCCCCCCCCCCCSCC1OC(OC2C(N)CC(N)C(OC3OC(CN)C(O)CC3N)C2O)C(O)C(N)C1O (stereo not drawn) [4d]	18.8 µg/mL (≈ 28.8 µM)	–	–	–	–	–	18.8 µg/mL (≈ 28.8 µM)	–	–	–	37.5 µg/mL (≈ 57.5 µM)	–	–	–	18.8 µg/mL (≈ 28.8 µM)	–	–	–	–	–
NC[C@H]1O[C@H](O[C@H]2[C@H](O)[C@@H](O[C@H]3O[C@H](CO)[C@@H](O)[C@H](N)[C@H]3O)[C@H](N)C[C@@H]2N)[C@H](N)C[C@@H]1O [TOB, tobramycin, reference compound]	–	–	–	>150 µg/mL	–	–	–	–	–	–	–	–	–	–	–	–	–	–	–	Time of kill: viable bacteria after incubation [1]: almost no reduction in bacterial growth; MIC ([3]; Escherichia coli): 4.7 µg/mL (≈ 10.1 µM); MIC ([4]; Streptococcus mutans, UA159): 75 µg/mL (≈ 160 µM); MIC ([5]; Escherichia coli): > 150 µg/mL; MIC ([23]; Shigella): 18.8 µg/mL (≈ 40.2 µM); MIC ([6]; Escherichia coli): 150 µg/mL (≈ 321 µM); hemolysis of human RBCs ([8]; 75 μg/mL): no measurable hemolysis; MIC ([9]; Escherichia coli): 4.7 µg/mL (≈ 10.1 µM); hemolysis of rat RBCs ([10]; 75 μg/mL): no measurable hemolysis; Time of kill: viable bacteria after incubation [11]: almost no reduction in bacterial growth; MIC ([25]; Staphylococcus epidermidis, AJCCM228): 0.3 µg/mL (≈ 0.642 µM); MIC ([13]; Escherichia coli): 18.8 µg/mL (≈ 40.2 µM); MIC ([15]; Staphylococcus aureus, MRSA): ≥ 150 µg/mL; MIC ([16]; Streptococcus pyogenes): 18.8 µg/mL (≈ 40.2 µM); MIC ([17]; Enterococcus, VRE): ≥ 150 µg/mL; IC50 [27]: ~0.02 µM; MIC ([18]; Escherichia coli): 9.4 µg/mL (≈ 20.1 µM); MIC ([19]; Escherichia coli, MC1061): 9.4 µg/mL (≈ 20.1 µM); MIC ([21]; Staphylococcus aureus): 9.4 µg/mL (≈ 20.1 µM); MIC ([22]; Enterococcus faecalis, ATCC29212): 150 µg/mL (≈ 321 µM)
CCCCCCCCCCSCC1OC(OC2C(N)CC(N)C(OC3OC(CN)C(O)CC3N)C2O)C(O)C(N)C1O (stereo not drawn) [4c]	37.5 µg/mL (≈ 60.1 µM)	–	–	–	–	–	75 µg/mL (≈ 120 µM)	–	–	–	75 µg/mL (≈ 120 µM)	–	–	–	–	37.5 µg/mL (≈ 60.1 µM)	–	37.5 µg/mL (≈ 60.1 µM)	18.8 µg/mL (≈ 30.1 µM)	–
CCCCCCCCCCCCCCS(=O)(=O)CC1OC(OC2C(N)CC(N)C(OC3OC(CN)C(O)CC3N)C2O)C(O)C(N)C1O (stereo not drawn) [6e]	–	–	–	–	–	–	18.8 µg/mL (≈ 26.4 µM)	–	–	–	18.8 µg/mL (≈ 26.4 µM)	–	37.5 µg/mL (≈ 52.7 µM)	–	–	18.8 µg/mL (≈ 26.4 µM)	–	–	–	–
